In ChEMBL document CHEMBL1124634, “Synthesis and antirhinovirus activity of 6-(dimethylamino)-2-(trifluoromethyl)-9-(substituted benzyl)-9H-purines” (J Med Chem, 1989):
Each block holds one molecule with its values, some of them ahead of it.

Columns and labels:
Human rhinovirus sp. [1] = experiment: Antiviral activity against rhinoviral-1B serotype in a plaque inhibition assay using monolayers of M-HeLa cells; type: functional, organism-based
Human rhinovirus sp. [2] = experiment: Antiviral activity against rhinoviral 29 serotype in a plaque inhibition assay using monolayers of M-HeLa cells; type: functional, organism-based
Human rhinovirus sp. [3] = experiment: Antiviral activity against rhinoviral 15 serotype in a plaque inhibition assay using monolayers of M-HeLa cells; type: functional, organism-based
Human rhinovirus sp. [4] = experiment: Antiviral activity against rhinoviral 31 serotype in a plaque inhibition assay using monolayers of M-HeLa cells; type: functional, organism-based
Human rhinovirus sp. [5] = experiment: Antiviral activity against rhinoviral 14 serotype in a plaque inhibition assay using monolayers of M-HeLa cells; type: functional, organism-based
Human rhinovirus sp. [6] = experiment: Antiviral activity against rhinoviral-19 serotype in a plaque inhibition assay using monolayers of M-HeLa cells; type: functional, organism-based
Human rhinovirus sp. [7] = experiment: Antiviral activity against rhinoviral-18 serotype in a plaque inhibition assay using monolayers of M-HeLa cells; type: functional, organism-based
Human rhinovirus sp. [8] = experiment: Percent inhibitory activity at 8 uM against rhinoviral 13 serotype in a plaque inhibition assay using monolayers of M-HeLa cells; type: functional
Human rhinovirus sp. [9] = experiment: Percent inhibitory activity at 8 uM against rhinoviral 21 serotype in a plaque inhibition assay using monolayers of M-HeLa cells; type: functional
Human rhinovirus sp. [10] = experiment: Antiviral activity against rhinoviral 12 serotype in a plaque inhibition assay using monolayers of M-HeLa cells; type: functional, organism-based
Human rhinovirus sp. [11] = experiment: Antiviral activity against rhinoviral 5 serotype in a plaque inhibition assay using monolayers of M-HeLa cells; type: functional, organism-based
Human rhinovirus sp. [12] = experiment: Antiviral activity against rhinoviral 16 serotype in a plaque inhibition assay using monolayers of M-HeLa cells; type: functional, organism-based
Human rhinovirus sp. [13] = experiment: Antiviral activity against rhinoviral 4 serotype in a plaque inhibition assay using monolayers of M-HeLa cells; type: functional, organism-based
Human rhinovirus sp. [14] = experiment: Antiviral activity against rhinoviral 2 serotype in a plaque inhibition assay using monolayers of M-HeLa cells; type: functional, organism-based
Human rhinovirus sp. [15] = experiment: Antiviral activity against rhinoviral-1A serotype in a plaque inhibition assay using monolayers of M-HeLa cells; type: functional, organism-based
Human rhinovirus sp. [16] = experiment: Percent inhibitory activity at 8 uM against rhinoviral 3 serotype in a plaque inhibition assay using monolayers of M-HeLa cells; type: functional
Human rhinovirus sp. [17] = experiment: Antiviral activity against rhinoviral 30 serotype in a plaque inhibition assay using monolayers of M-HeLa cells; type: functional, organism-based
Human rhinovirus sp. [18] = experiment: Antiviral activity against rhinoviral 8 serotype in a plaque inhibition assay using monolayers of M-HeLa cells; type: functional, organism-based
Human rhinovirus sp. [19] = experiment: Antiviral activity against rhinoviral 9 serotype in a plaque inhibition assay using monolayers of M-HeLa cells; type: functional, organism-based
Human rhinovirus sp. [20] = experiment: Percent inhibitory activity at 8 uM against rhinoviral 29 serotype in a plaque inhibition assay using monolayers of M-HeLa cells; type: functional
Human rhinovirus sp. [21] = experiment: Percent inhibitory activity at 8 uM against rhinoviral 15 serotype in a plaque inhibition assay using monolayers of M-HeLa cells; type: functional
Human rhinovirus sp. [22] = experiment: Percent inhibitory activity at 8 uM against rhinoviral 19s erotype in a plaque inhibition assay using monolayers of M-HeLa cells; type: functional
Human rhinovirus sp. [23] = experiment: Percent inhibitory activity at 8 uM against rhinoviral 30 serotype in a plaque inhibition assay using monolayers of M-HeLa cells; type: functional
Human rhinovirus sp. [24] = experiment: Antiviral activity against rhinoviral 18 serotype in a plaque inhibition assay using monolayers of M-HeLa cells; type: functional, organism-based
Human rhinovirus sp. [25] = experiment: Antiviral activity against rhinoviral 19 serotype in a plaque inhibition assay using monolayers of M-HeLa cells; type: functional, organism-based
Human rhinovirus sp. [26] = experiment: Antiviral activity against rhinoviral 3 serotype in a plaque inhibition assay using monolayers of M-HeLa cells; type: functional, organism-based
Human rhinovirus sp. [27] = experiment: Percent inhibitory activity at 8 uM against rhinoviral 31 serotype in a plaque inhibition assay using monolayers of M-HeLa cells; type: functional
Human rhinovirus sp. [28] = experiment: Percent inhibitory activity at 8 uM against rhinoviral 5 serotype in a plaque inhibition assay using monolayers of M-HeLa cells; type: functional

SMILES: CN(C)c1nc(C(F)(F)F)nc2c1ncn2Cc1ccc(Cl)c([N+](=O)[O-])c1
- IC50 (Human rhinovirus sp. [1]): 2.1 µM

SMILES: CN(C)c1nc(C(F)(F)F)nc2c1ncn2Cc1ccccc1N
- IC50 (Human rhinovirus sp. [1]): 1.7 µM

SMILES: COc1cc(Cn2cnc3c(N(C)C)nc(C(F)(F)F)nc32)ccc1C
- IC50 (Human rhinovirus sp. [1]): > 1 µM

SMILES: COc1ccccc1Cn1cnc2c(N(C)C)nc(C(F)(F)F)nc21
- IC50 (Human rhinovirus sp. [1]): 5.6 µM

SMILES: Cc1cc(C)cc(Cn2cnc3c(N(C)C)nc(C(F)(F)F)nc32)c1
- IC50 (Human rhinovirus sp. [1]): > 1.3 µM

SMILES: CN(C)c1nc(C(F)(F)F)nc2c1ncn2Cc1cccc(NC=O)c1
- IC50 (Human rhinovirus sp. [1]): 0.74 µM

SMILES: CCCCc1ccc(Cn2cnc3c(N(C)C)nc(C(F)(F)F)nc32)cc1
- IC50 (Human rhinovirus sp. [1]): 0.78 µM

SMILES: CN(C)c1cc(Cl)ccc1Cn1cnc2c(N(C)C)nc(C(F)(F)F)nc21
- IC50 (Human rhinovirus sp. [1]): 180 µM

SMILES: CN(C)c1nc(C(F)(F)F)nc2c1ncn2Cc1ccc(OCc2ccccc2)cc1
- IC50 (Human rhinovirus sp. [1]): 4.4 µM

SMILES: CN(C)c1nc(C(F)(F)F)nc2c1ncn2Cc1ccc(-c2ccccc2)cc1
- IC50 (Human rhinovirus sp. [1]): 14 µM

SMILES: CN(C)c1cc(Cn2cnc3c(N(C)C)nc(C(F)(F)F)nc32)ccc1Cl
- IC50 (Human rhinovirus sp. [1]): > 0.2 µM

SMILES: CN(C)c1nc(C(F)(F)F)nc2c1ncn2Cc1cccc(O)c1
- IC50 (Human rhinovirus sp. [1]): 0.95 µM

Now from value to molecule, other results behind:

- IC50 (Human rhinovirus sp. [1]): 0.3 µM
SMILES: CN(C)c1nc(C(F)(F)F)nc2c1ncn2Cc1ccc(C#N)cc1

- IC50 (Human rhinovirus sp. [2]): 4.8 µM
- IC50 (Human rhinovirus sp. [3]): 3.7 µM
- IC50 (Human rhinovirus sp. [4]): 13 µM
- IC50 (Human rhinovirus sp. [5]): 10 µM
- IC50 (Human rhinovirus sp. [6]): 5.4 µM
- IC50 (Human rhinovirus sp. [7]): 8.1 µM
- IC50 (Human rhinovirus sp. [10]): 5.1 µM
- IC50 (Human rhinovirus sp. [11]): > 8 µM
- IC50 (Human rhinovirus sp. [12]): 0.74 µM
- IC50 (Human rhinovirus sp. [13]): 8.4 µM
- IC50 (Human rhinovirus sp. [14]): 6.1 µM
- IC50 (Human rhinovirus sp. [15]): 0.73 µM
- IC50 (Human rhinovirus sp. [17]): 7.5 µM
- IC50 (Human rhinovirus sp. [18]): 11 µM
- IC50 (Human rhinovirus sp. [1]): 0.12 µM
- IC50 (Human rhinovirus sp. [19]): 0.71 µM
SMILES: CN(C)c1nc(C(F)(F)F)nc2c1ncn2Cc1ccc(Cl)c(Cl)c1
- Inhibition (Human rhinovirus sp. [8]): 23%
- Inhibition (Human rhinovirus sp. [9]): 29%
- Inhibition (Human rhinovirus sp. [16]): 40%

- IC50 (Human rhinovirus sp. [1]): 0.15 µM
SMILES: CN(C)c1nc(C(F)(F)F)nc2c1ncn2Cc1ccccc1F

- IC50 (Human rhinovirus sp. [4]): 13 µM
- IC50 (Human rhinovirus sp. [5]): 11 µM
- IC50 (Human rhinovirus sp. [7]): 6.1 µM
- IC50 (Human rhinovirus sp. [10]): 7.2 µM
- IC50 (Human rhinovirus sp. [11]): > 8 µM
- IC50 (Human rhinovirus sp. [12]): 1.2 µM
- IC50 (Human rhinovirus sp. [13]): 7.6 µM
- IC50 (Human rhinovirus sp. [14]): 2.8 µM
- IC50 (Human rhinovirus sp. [15]): 0.83 µM
- IC50 (Human rhinovirus sp. [18]): > 8 µM
- IC50 (Human rhinovirus sp. [1]): 0.11 µM
- IC50 (Human rhinovirus sp. [19]): 0.95 µM
SMILES: Cc1ccc(Cn2cnc3c(N(C)C)nc(C(F)(F)F)nc32)c(C)c1
- Inhibition (Human rhinovirus sp. [20]): 20%
- Inhibition (Human rhinovirus sp. [8]): 13%
- Inhibition (Human rhinovirus sp. [9]): 16%
- Inhibition (Human rhinovirus sp. [21]): 30%
- Inhibition (Human rhinovirus sp. [16]): 40%
- Inhibition (Human rhinovirus sp. [22]): 36%
- Inhibition (Human rhinovirus sp. [23]): 33%

- IC50 (Human rhinovirus sp. [1]): 0.2 µM
SMILES: CN(C)c1nc(C(F)(F)F)nc2c1ncn2Cc1ccc(CN)cc1

- IC50 (Human rhinovirus sp. [1]): 0.06 µM
SMILES: CN(C)c1nc(C(F)(F)F)nc2c1ncn2Cc1cccc(Br)c1

- IC50 (Human rhinovirus sp. [1]): 0.47 µM
SMILES: CN(C)c1nc(C(F)(F)F)nc2c1ncn2Cc1ccc(Cl)cc1N

- IC50 (Human rhinovirus sp. [2]): 2.6 µM
- IC50 (Human rhinovirus sp. [3]): 4.5 µM
- IC50 (Human rhinovirus sp. [4]): 8.6 µM
- IC50 (Human rhinovirus sp. [5]): 7.6 µM
- IC50 (Human rhinovirus sp. [24]): 10 µM
- IC50 (Human rhinovirus sp. [10]): 5.2 µM
- IC50 (Human rhinovirus sp. [11]): > 8 µM
- IC50 (Human rhinovirus sp. [12]): 0.81 µM
- IC50 (Human rhinovirus sp. [13]): 3.8 µM
- IC50 (Human rhinovirus sp. [14]): 4.5 µM
- IC50 (Human rhinovirus sp. [15]): 0.57 µM
- IC50 (Human rhinovirus sp. [17]): 7.9 µM
- IC50 (Human rhinovirus sp. [18]): 7.2 µM
- IC50 (Human rhinovirus sp. [1]): 0.07 µM
- IC50 (Human rhinovirus sp. [19]): 1 µM
- IC50 (Human rhinovirus sp. [25]): 2.5 µM
SMILES: CSc1ccc(Cn2cnc3c(N(C)C)nc(C(F)(F)F)nc32)cc1
- Inhibition (Human rhinovirus sp. [8]): 35%
- Inhibition (Human rhinovirus sp. [9]): 35%
- Inhibition (Human rhinovirus sp. [16]): 39%

- IC50 (Human rhinovirus sp. [1]): 0.68 µM
SMILES: COc1cc(Cn2cnc3c(N(C)C)nc(C(F)(F)F)nc32)ccc1Cl

- IC50 (Human rhinovirus sp. [26]): 9 µM
- IC50 (Human rhinovirus sp. [2]): 4.2 µM
- IC50 (Human rhinovirus sp. [5]): 8 µM
- IC50 (Human rhinovirus sp. [7]): 13 µM
- IC50 (Human rhinovirus sp. [10]): 8.1 µM
- IC50 (Human rhinovirus sp. [12]): 4.3 µM
- IC50 (Human rhinovirus sp. [13]): 10 µM
- IC50 (Human rhinovirus sp. [14]): 9.4 µM
- IC50 (Human rhinovirus sp. [15]): 4 µM
- IC50 (Human rhinovirus sp. [18]): 7.9 µM
- IC50 (Human rhinovirus sp. [1]): 0.2 µM
- IC50 (Human rhinovirus sp. [19]): 1.9 µM
SMILES: CN(C)c1nc(C(F)(F)F)nc2c1ncn2Cc1ccccc1Cl
- Inhibition (Human rhinovirus sp. [27]): 38%
- Inhibition (Human rhinovirus sp. [8]): 24%
- Inhibition (Human rhinovirus sp. [9]): 38%
- Inhibition (Human rhinovirus sp. [21]): 30%
- Inhibition (Human rhinovirus sp. [28]): 24%
- Inhibition (Human rhinovirus sp. [22]): 27%
- Inhibition (Human rhinovirus sp. [23]): 31%

- IC50 (Human rhinovirus sp. [1]): 0.18 µM
SMILES: CN(C)c1nc(C(F)(F)F)nc2c1ncn2Cc1ccc(NC=O)cc1
